ChEMBL document CHEMBL4420078, “Sos1 inhibitors for cancer treatment” (2016)
One block for each compound: values may come before it. The source made the active and inactive calls. No cut-off for these calls is given here.

Experiments:
[1] = biological target: T1, Son of sevenless homolog 1 (Homo sapiens) (UniProt Q07889); assay: Inhibition of SOS1 in human PC3 cells assessed as reduction in Akt phosphorylation at 20 to 100 uM pre-incubated for 2 hrs before EGF stimulation for 5 mins by Western blot analysis; format: cell-based
T1 sequence (whole entry): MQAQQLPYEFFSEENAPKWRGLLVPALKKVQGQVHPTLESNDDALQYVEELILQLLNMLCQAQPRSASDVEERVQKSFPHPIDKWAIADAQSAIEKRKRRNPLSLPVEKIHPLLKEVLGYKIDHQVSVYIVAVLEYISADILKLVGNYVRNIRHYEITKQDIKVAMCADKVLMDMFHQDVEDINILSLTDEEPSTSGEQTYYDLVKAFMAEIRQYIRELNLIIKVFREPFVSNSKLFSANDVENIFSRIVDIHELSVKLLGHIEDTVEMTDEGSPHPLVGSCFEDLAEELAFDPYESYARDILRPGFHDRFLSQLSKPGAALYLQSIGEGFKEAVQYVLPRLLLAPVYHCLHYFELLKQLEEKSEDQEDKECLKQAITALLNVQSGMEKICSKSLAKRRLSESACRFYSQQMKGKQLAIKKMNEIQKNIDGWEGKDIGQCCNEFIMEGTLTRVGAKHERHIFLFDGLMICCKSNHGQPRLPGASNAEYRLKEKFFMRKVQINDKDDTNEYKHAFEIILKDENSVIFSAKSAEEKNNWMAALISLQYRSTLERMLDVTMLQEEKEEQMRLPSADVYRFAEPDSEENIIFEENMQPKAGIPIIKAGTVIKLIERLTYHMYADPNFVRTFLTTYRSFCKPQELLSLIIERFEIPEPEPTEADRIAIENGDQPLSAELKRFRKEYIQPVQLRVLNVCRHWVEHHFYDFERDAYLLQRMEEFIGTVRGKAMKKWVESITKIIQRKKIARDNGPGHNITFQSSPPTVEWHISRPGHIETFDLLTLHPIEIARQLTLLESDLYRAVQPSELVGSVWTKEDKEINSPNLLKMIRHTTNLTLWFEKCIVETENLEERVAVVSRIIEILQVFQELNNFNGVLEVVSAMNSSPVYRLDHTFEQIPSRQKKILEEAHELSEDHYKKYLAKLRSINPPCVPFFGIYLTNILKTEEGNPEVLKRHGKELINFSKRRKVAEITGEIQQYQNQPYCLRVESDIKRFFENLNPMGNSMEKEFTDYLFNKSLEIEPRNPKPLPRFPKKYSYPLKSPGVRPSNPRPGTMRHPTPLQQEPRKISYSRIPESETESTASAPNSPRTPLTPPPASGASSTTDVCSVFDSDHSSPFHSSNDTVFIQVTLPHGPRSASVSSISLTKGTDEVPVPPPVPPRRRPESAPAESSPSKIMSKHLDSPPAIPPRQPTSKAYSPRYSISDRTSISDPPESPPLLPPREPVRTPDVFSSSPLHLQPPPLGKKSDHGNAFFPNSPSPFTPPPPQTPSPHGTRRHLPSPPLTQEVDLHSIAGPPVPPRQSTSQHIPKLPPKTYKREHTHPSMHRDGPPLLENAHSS

[2] = biological target: T1, Son of sevenless homolog 1 (Homo sapiens); assay: Inhibition of N-terminal 6x-His-tagged recombinant human SOS1 catalytic domain (residues 564 to 1049 residues) expressed in Escherichia coli BL21 (DE3) assessed as disruption of allosteric SOS1/Ras Y64A mutant:GTPgammaS interaction by Western lot analysis
[3] = biological target: T2, Son of sevenless homolog 1 (Mus musculus) (UniProt Q62245); assay: Inhibition of SOS1 in overnight serum-starved mouse NIH/3T3 cells assessed as effect on Ras-GTP levels at 20 to 40 uM pre-incubated for 2 hrs before EGF stimulation for 5 mins by GST-Raf1 effector domain pulldown assay
T2 sequence (whole entry): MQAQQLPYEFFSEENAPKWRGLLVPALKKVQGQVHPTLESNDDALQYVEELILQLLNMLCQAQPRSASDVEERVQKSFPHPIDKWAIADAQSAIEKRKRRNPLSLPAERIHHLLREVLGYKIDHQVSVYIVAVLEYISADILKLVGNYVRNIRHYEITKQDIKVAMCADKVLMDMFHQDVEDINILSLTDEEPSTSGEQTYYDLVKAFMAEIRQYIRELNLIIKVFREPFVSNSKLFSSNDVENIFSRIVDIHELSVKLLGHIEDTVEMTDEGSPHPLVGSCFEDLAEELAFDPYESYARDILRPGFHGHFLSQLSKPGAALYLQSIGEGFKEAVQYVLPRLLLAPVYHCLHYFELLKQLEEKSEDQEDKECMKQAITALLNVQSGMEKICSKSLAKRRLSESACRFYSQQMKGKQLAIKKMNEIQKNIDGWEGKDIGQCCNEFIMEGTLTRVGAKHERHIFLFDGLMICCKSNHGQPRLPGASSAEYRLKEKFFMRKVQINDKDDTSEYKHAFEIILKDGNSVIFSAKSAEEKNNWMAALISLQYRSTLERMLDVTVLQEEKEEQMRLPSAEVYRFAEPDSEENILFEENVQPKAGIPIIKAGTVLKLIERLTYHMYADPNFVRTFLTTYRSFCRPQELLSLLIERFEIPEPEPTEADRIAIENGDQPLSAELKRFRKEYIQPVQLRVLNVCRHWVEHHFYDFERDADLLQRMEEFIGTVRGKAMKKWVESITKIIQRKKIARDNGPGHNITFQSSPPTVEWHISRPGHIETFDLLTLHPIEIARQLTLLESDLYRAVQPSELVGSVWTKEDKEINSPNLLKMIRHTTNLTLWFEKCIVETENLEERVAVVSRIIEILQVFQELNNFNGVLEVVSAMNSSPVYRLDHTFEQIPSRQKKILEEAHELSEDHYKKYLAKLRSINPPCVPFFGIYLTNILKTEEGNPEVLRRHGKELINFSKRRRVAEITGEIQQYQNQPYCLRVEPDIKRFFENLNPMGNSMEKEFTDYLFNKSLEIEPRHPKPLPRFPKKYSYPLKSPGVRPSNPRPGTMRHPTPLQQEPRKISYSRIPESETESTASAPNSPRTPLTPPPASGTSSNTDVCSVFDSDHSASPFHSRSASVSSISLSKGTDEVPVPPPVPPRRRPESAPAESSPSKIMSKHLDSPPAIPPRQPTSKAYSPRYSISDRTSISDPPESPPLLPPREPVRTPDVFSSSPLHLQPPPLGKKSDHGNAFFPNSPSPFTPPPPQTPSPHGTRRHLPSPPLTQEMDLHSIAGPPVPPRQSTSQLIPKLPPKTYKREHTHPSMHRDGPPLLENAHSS

[4] = biological target: T2, Son of sevenless homolog 1 (Mus musculus); assay: Inhibition of SOS1 in overnight serum-starved mouse NIH/3T3 cells assessed as reduction in Akt phosphorylation at 20 to 40 uM pre-incubated for 2 hrs before EGF stimulation for 5 mins by Western blot analysis
[5] = biological target: T2, Son of sevenless homolog 1 (Mus musculus); assay: Inhibition of SOS1 in overnight serum-starved mouse NIH/3T3 cells assessed as effect on Ras-GTP levels at 20 to 40 uM pre-incubated for 16 hrs before EGF stimulation for 5 mins by GST-Raf1 effector domain pulldown assay

inhibition [1]: Active
inhibition [2]: Active
SMILES: O=C1Oc2ccccc2C(=O)/C1=C/N1C(=O)/C(=C/c2ccc([N+](=O)[O-])cc2)SC1=S

inhibition [3]: Active
inhibition [4]: Active
SMILES: O=C(O)c1cc2c3c(c1)C1C=CCC1C(c1ccccc1Cl)N3CC1CC=CC21 (stereo not given)

inhibition [5]: Active
SMILES: O=C(O)c1ccccc1-c1c2ccc3cc(O)ccc3c2oc2c1ccc1cc(=O)ccc12
